Experimental data: ChEMBL document CHEMBL1157961, “Nitrogen-containing phorbol esters from Croton ciliatoglandulifer and their effects on cyclooxygenases-1 and -2” (J Nat Prod, 2006)

Legend:
[1] = target: T1, Prostaglandin G/H synthase 2 (Homo sapiens, UniProt P35354); experiment: Inhibition of human recombinant COX2
T1 sequence (P35354 whole entry): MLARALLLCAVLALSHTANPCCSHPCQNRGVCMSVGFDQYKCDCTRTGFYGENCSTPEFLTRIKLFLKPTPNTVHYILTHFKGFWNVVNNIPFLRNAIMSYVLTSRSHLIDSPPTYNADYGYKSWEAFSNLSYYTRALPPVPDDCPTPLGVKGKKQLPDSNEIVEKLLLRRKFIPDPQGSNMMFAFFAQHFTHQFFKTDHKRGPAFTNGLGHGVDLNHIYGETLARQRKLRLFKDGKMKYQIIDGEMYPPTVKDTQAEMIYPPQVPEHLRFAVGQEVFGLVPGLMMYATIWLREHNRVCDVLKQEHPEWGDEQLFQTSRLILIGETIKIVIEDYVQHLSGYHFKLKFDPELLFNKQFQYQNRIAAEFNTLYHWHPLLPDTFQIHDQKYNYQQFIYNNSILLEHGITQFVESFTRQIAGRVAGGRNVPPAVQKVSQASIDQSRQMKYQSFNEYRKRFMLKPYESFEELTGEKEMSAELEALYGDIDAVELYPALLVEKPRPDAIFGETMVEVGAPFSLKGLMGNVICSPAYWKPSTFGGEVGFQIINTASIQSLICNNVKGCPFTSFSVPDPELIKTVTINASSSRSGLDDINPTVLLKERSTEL

[2] = target: T2, Prostaglandin G/H synthase 1 (Ovis aries, UniProt P05979); experiment: Inhibition of ovine COX1
T2 sequence (P05979 whole entry): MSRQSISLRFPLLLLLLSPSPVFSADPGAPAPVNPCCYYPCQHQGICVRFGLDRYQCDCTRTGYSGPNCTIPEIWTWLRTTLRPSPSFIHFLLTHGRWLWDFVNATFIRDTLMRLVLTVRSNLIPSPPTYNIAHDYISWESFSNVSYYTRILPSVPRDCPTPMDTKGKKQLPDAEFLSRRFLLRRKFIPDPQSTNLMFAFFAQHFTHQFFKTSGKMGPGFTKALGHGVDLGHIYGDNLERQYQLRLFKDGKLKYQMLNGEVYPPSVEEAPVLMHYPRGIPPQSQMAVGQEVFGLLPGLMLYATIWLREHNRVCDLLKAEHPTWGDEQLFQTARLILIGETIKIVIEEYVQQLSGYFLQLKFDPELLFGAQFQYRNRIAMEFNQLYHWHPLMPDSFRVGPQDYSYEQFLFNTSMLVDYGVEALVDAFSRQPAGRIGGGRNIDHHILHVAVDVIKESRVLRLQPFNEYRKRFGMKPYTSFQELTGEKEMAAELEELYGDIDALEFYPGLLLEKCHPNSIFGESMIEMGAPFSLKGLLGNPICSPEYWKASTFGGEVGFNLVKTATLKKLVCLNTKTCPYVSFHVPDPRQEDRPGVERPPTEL

## CC(=O)O[C@@]12[C@H](OC(=O)[C@@H](C(C)C)N(C)C)[C@@H](C)[C@@]3(O)[C@@H](C=C(CO)C[C@@]4(O)C(=O)C(C)=C[C@@H]34)[C@@H]1C2(C)C
[1]
  IC50: 2200 nM
[2]
  IC50: 1 nM

## CC(=O)O[C@@]12[C@H](OC(=O)[C@H](C(C)C)N(C)C)[C@@H](C)[C@]3(O)[C@@H]4C=C(C)C(=O)[C@@H]4CC(CO)=C[C@H]3[C@@H]1C2(C)C
[1]
  IC50: > 100000 nM
[2]
  IC50: > 100000 nM

## CC(=O)O[C@@]12[C@H](OC(=O)C(=C(C)C)N(C)C)[C@@H](C)[C@]3(O)[C@@H]4C=C(C)C(=O)[C@@H]4CC(CO)=C[C@H]3[C@@H]1C2(C)C
[1]
  IC50: > 100000 nM

## CC(=O)O[C@@]12[C@H](OC(=O)[C@@H](C(C)C)N(C)C)[C@@H](C)[C@]3(O)[C@@H]4C=C(C)C(=O)[C@@H]4CC(CO)=C[C@H]3[C@@H]1C2(C)C
[1]
  IC50: 2200 nM
[2]
  IC50: 1 nM
